Patent US4879421A, “Method for preparing optically active binaphthol and spiroibiindanol” (General Electric Company, priority 1988, dated 1989)

Molecular target: T1, cholesterol esterase (Bos taurus, UniProt P30122)
T1 construct: assayed with taurocholate in ether/phosphate emulsion
T1 sequence (P30122 19-597): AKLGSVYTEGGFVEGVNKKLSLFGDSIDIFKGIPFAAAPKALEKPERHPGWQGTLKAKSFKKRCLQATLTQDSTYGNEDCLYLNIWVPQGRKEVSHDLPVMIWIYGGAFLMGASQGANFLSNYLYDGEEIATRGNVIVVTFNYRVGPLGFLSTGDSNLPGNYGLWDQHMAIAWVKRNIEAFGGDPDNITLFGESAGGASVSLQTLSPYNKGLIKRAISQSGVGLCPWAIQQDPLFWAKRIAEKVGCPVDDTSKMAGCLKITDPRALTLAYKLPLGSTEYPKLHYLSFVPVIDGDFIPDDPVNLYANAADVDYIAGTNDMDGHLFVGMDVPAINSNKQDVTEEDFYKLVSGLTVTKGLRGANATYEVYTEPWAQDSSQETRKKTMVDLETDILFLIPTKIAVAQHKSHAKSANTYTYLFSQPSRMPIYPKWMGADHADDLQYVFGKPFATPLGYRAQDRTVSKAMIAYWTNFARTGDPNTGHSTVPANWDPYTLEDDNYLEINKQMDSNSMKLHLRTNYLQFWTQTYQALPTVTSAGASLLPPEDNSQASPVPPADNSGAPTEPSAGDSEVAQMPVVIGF
Experiment: Cholesterol esterase catalyzed hydrolysis of esters, relative rate by pH stat
Type: biochemical
Details: commercial cholesterol esterase, 0.1 N NaOH to hold pH 7.0, emulsion of ester (1.0 mmol) in ethyl ether (10 mL) and 10 mM phosphate buffer pH 7.0 with 30 mg sodium taurocholate
Description: In similar manner as Example 2 commercial samples of cholesterol esterase are shown to catalyze the enantiospecific hydrolysis of diesters of 1,1'-bi-2-naphthol listed in the following Table.
^(a) The relative rate of hydrolysis is measured using a pH stat whic
measures the amount of base (0.1 N NaOH) required to maintain the pH at
7.0 for an emulsion of ester (1.0 mmol) dissolved in ethyl ether (10
milliliter) and aqueous buffer (10 milliliters of 10 mM phosphate, pH 7.0
containing 30 milligrams sodium taurocholate).

Row | Compound | Relative Rate (relative rate of hydrolysis)
1 | CCCCCC(=O)Oc1ccc2ccccc2c1-c1c(OC(=O)CCCCC)ccc2ccccc12 [hexanoate] | 0.5
2 | CCCC(=O)Oc1ccc2ccccc2c1-c1c(OC(=O)CCC)ccc2ccccc12 [Butyrate] | 0.5
3 | CCC(=O)Oc1ccc2ccccc2c1-c1c(OC(=O)CC)ccc2ccccc12 | 1.1
4 | CCCCCCCC(=O)Oc1ccc2ccccc2c1-c1c(OC(=O)CCCCCCC)ccc2ccccc12 [octanoate] | 0.4
5 | CC(=O)Oc1ccc2ccccc2c1-c1c(OC(C)=O)ccc2ccccc12 [acetate] | 1.1
6 | CC(=O)O[C@H]1CC[C@@]2(C)C(=CC[C@H]3[C@@H]4CC[C@H]([C@H](C)CCCC(C)C)[C@@]4(C)CC[C@@H]32)C1 [reference compound] | 1.0
